Test results from patent US7385088B1, “Compounds from Antrodia camphorata” (Golden Biotechnology Corporation, priority 2007, dated 2008).
Converted amounts (≈) assume the structure as drawn.

Tests used:
Type in all cases: cell-based
DU-145 = test: MTT survival assay, prostate cancer cells DU-145; conditions: Homo sapiens, androgen-independent prostate cancer cells, 48 hours
Description: (§1) Therefore Antroquinonol B and Antroquinonol C can be used in inhibiting cancer cell growth of breast cancer, lung cancer, hepatic cancer, and prostate cancer, which can further be applied in cancer treatment of breast cancer, lung cancer, hepatic cancer, prostate cancer and the like. The details of the examples are described as follows:
(§2) MTT assay is commonly used to determine cell proliferation, percent of viable cells, and cytotoxicity. 3-[4,5-dimethylthiazol-2-yl]2,5-diphenyltetrazolium bromide (MTT) is a yellow dye, which can be absorbed by the living cells and be reduced to purplish blue formazan crystals by succinate tetrazolium reductase in mitochondria. Formazan formation can therefore be used to assess and determine the survival rate of cells.
(§3) The NCI anti-cancer drug screen model was also employed to test the anti-cancer effect of the Antroquinonols in the present invention. Antroquinonol B and Antroquinonol C isolated from example 2 were added into the culture media of human prostate cancer cells, LNCaP or DU-145, and prostate cancer cell survival rates were analyzed with the abovementioned MTT assay. […]
(§4) The human prostate-cancer cells, LNCaP and DU-145, were cultivated in media containing fetal calf serum for 24 hours. […] The plates were read on an ELISA reader at wavelength of 570 nm to determine the survival rates.

HepG2 = test: MTT survival assay, hepatic cancer cells Hep G2; conditions: Homo sapiens, 48 hours
Description: (§5) Therefore Antroquinonol B and Antroquinonol C can be used in inhibiting cancer cell growth of breast cancer, lung cancer, hepatic cancer, and prostate cancer, which can further be applied in cancer treatment of breast cancer, lung cancer, hepatic cancer, prostate cancer and the like. The details of the examples are described as follows: MTT assay is commonly used to determine cell proliferation, percent of viable cells, and cytotoxicity. 3-[4,5-dimethylthiazol-2-yl]2,5-diphenyltetrazolium bromide (MTT) is a yellow dye, which can be absorbed by the living cells and be reduced to purplish blue formazan crystals by succinate tetrazolium reductase in mitochondria. Formazan formation can therefore be used to assess and determine the survival rate of cells. The NCI anti-cancer drug screen model was employed to test the anti-cancer effect of the Antroquinonol B and Antroquinono C in the present invention. The Antroquinonos isolated from example 1 were added into the culture media of human hepatic-cancer cells, Hep 3B or Hep G2, for tumor cell survival assay. Hepatic-cancer cells Hep 3B (BCRC 60434) and Hep G2 (BCRC 60025), were obtained from the Bioresources Collection and Research Center (BCRC) of the Food Industry Research and Development Institute. […] The plates were read on an ELISA reader at wavelength of 570 nm to determine the survival rates.

MCF-7 = test: MTT survival assay, breast cancer cells MCF-7; conditions: Homo sapiens, MCF7, estrogen-dependent breast cancer cells, 48 hours
Description: (§6) Therefore Antroquinonol B and Antroquinonol C can be used in inhibiting cancer cell growth of breast cancer, lung cancer, hepatic cancer, and prostate cancer, which can further be applied in cancer treatment of breast cancer, lung cancer, hepatic cancer, prostate cancer and the like. The details of the examples are described as follows: The NCI anti-cancer drug screen model was adopted to test the anti-cancer effect of the isolated compounds from example 1 in the present invention. The isolated Antroquinonol B and Antroquinonol C from example 1 were added into the culture media of human breast-cancer cells, MCF-7 or MDA-MB-231, to test for tumor cell survival. This survival assay was carried out with the widely known MTT (3-[4,5-dimethylthiazol-2-yl]2,5-diphenyltetrazolium bromide) assay. MCF-7 cell line is originated from primary breast cancer cells (early stage), sensitive to estrogen and therefore is estrogen-dependent, while MDA-MB-231 is insensitive to estrogen and therefore is estrogen-independent, which is a difficult tumor with a low survival rate. MTT assay is commonly used to determine cell proliferation, percent of viable cells, and cytotoxicity. […] The plates were read on an ELISA reader at wavelength of 570 nm to determine the survival rates.

MDA-MB-231 = test: MTT survival assay, breast cancer cells MDA-MB-231; conditions: Homo sapiens, estrogen-independent breast cancer cells, 48 hours
Description: as §6

A549 = test: MTT survival assay, lung cancer cells A549; conditions: Homo sapiens, 48 hours
Description: Therefore Antroquinonol B and Antroquinonol C can be used in inhibiting cancer cell growth of breast cancer, lung cancer, hepatic cancer, and prostate cancer, which can further be applied in cancer treatment of breast cancer, lung cancer, hepatic cancer, prostate cancer and the like. The details of the examples are described as follows: MTT assay is commonly used to determine cell proliferation, percent of viable cells, and cytotoxicity. 3-[4,5-dimethylthiazol-2-yl]2,5-diphenyltetrazolium bromide (MTT) is a yellow dye, which can be absorbed by the living cells and be reduced to purplish blue formazan crystals by succinate tetrazolium reductase in mitochondria. Formazan formation can therefore be used to assess and determine the survival rate of cells. The NCI anti-cancer drug screen model was also employed to test the anti-lung cancer effect of the Antroquinonol B and Antroquinonol C in the present invention. The Antroquinonols isolated from example 1 were added into the culture media of human lung cancer cell A549 with the abovementioned MTT assay to analyze lung cancer cell survival rates. Human lung cancer cell A549 was obtained from the Bioresources Collection and Research Center (BCRC) of the Food Industry Research and Development Institute with an accession number of BCRC 60074. […] The plates were read on an ELISA reader at wavelength of 570 nm to determine the survival rates.

LNCaP = test: MTT survival assay, prostate cancer cells LNCaP; conditions: Homo sapiens, androgen-dependent prostate cancer cells, 48 hours
Description: as §1, §2, §3, §4

Hep3B = test: MTT survival assay, hepatic cancer cells Hep 3B; conditions: Homo sapiens, 48 hours
Description: as §5

SMILES	IC50 (DU-145)	IC50 (HepG2)	IC50 (MCF-7)	IC50 (MDA-MB-231)	IC50 (A549)	IC50 (LNCaP)	IC50 (Hep3B)
COC1=C(OC)[C@H](O)[C@H](C/C=C(\C)CC/C=C(/C)C/C=C/C(C)(C)OC)[C@@H](C)C1=O [Antroquinonol C]	12.2 mg/L (≈ 29 µM)	5.12 mg/L (≈ 12.2 µM)	1.17 mg/L (≈ 2.78 µM)	21.9 mg/L (≈ 52.1 µM)	8.21 mg/L (≈ 19.5 µM)	8.72 mg/L (≈ 20.7 µM)	1.32 mg/L (≈ 3.14 µM)
COC1=C(OC)[C@H](O)[C@H](C/C=C(\C)CC/C=C(/C)C/C=C/C(C)(C)O)[C@@H](C)C1=O [Antroquinonol B]	10.1 mg/L (≈ 24.9 µM)	3.32 mg/L (≈ 8.17 µM)	1.94 mg/L (≈ 4.77 µM)	8.72 mg/L (≈ 21.4 µM)	11.9 mg/L (≈ 29.3 µM)	5.67 mg/L (≈ 13.9 µM)	1.21 mg/L (≈ 2.98 µM)
